These results are taken from PMC10458458, “Characterization of Anticancer Effects of the Analogs of DJ4, a Novel Selective Inhibitor of ROCK and MRCK Kinases” (Pharmaceuticals, 2023).

The test system of data set [1] is MDA-MB-231 breast cancer cells. The experiment in a line: Western blot of proliferation and apoptosis proteins. It is filed as cell-based, human. The note with it: 24 h. How it is done: To extend these observations to MDA-MB-231 breast cancer cells, cells were treated with DJ4 at 2.5, 5.0, and 10 µM for 24 h. ROCK1/2 catalyzes the inactivating phosphorylation of the myosin phosphatase subunit MYPT1 at Thr696 and Thr853 [16]. To confirm the targeting of ROCK1/2 by DJ4 in MDA-MB-231 cells, we probed for phosphorylation of MYPT1.
In contrast, expression of proliferating cell nuclear antigen (PCNA) protein was decreased at all the concentrations (Figure 4C). PCNA is highly expressed during active DNA synthesis (S phase).
For protein expression studies, MDA-MB-231 cells were treated with indicated concentrations of DJ4 for 24 h. Additionally, A549 cells were treated for 24 h and 48 h. Cell lysate preparation, protein estimation, and Western blot analysis was performed as per the procedure reported earlier. The blots were probed with cleaved caspase 7 (#9492, Cell Signaling, Danvers, MA, USA), GAPDH (#97166, Cell Signaling, Danvers, MA, USA), β-Actin (#3700, Cell Signaling, Danvers, MA, USA), pErk (#5726, Cell Signaling, Danvers, MA, USA), p21 ^WAF1/CIP1 (#60480, Cell Signaling, Danvers, MA, USA), cyclinD3 (#2936, Cell Signaling, Danvers, MA, USA), CDK4 (#23972, Cell Signaling, Danvers, MA, USA), cleaved PARP (#32563, Cell Signaling, Danvers, MA, USA), pan Erk (#23887, Cell Signaling, Danvers, MA, USA), pMYPT1 (Thr853, # SAB4503944, Millipore, Inc., Burlington, MA, USA) and PCNA (#sc-56, Santa Cruz Biotechnology, Inc., Dallas, TX, USA) antibodies.
Background: Immunoblotting shows a protein as a band on a membrane.

The next data set has as its target T1, CDK14 (Homo sapiens, UniProt O94921).
T1 construct: purchased DiscoverX Corporation (Lead Hunter Discovery Services, KINOMEscan)
The data set is described as follows: KINOMEscan competition binding assay. The note with it: CDK14, 10 µM. From the text:
(§1) To examine specificity of DJ4 to different human kinases, we performed a KINOMEscan profiling assay (DiscoverX, Fremont, CA, USA). The KINOMEscan assay consists of a panel of more than 480 kinases of different classes (TK/TKL/STE/CK1/AGC/CAMK/CMGC/others), including clinically relevant mutants, atypical kinases, lipid, and pathogen kinases. […] However, we also recognized the limitations of DJ4 that preclude its clinical development and the need for further optimization of the DJ4 chemotype.
(§2) The KINOMEscan®, in vitro competition binding assay, was performed by Lead Hunter Discovery Services (DiscoverX Corporation, Fremont, CA, USA) to determine the kinase specificity of DJ4, a novel kinase inhibitor [19, 44]. The KINOMEscan® panel consists of more than 480 kinases, including clinically relevant mutants, lipid, atypical, and pathogen kinases, plus a growing panel of activation-state specific assays. The primary screen was performed using a single concentration of 10 µM, and the results for DJ4 binding interactions are reported as percent of control (%Ctrl). The %Ctrl is calculated as follows: [(DJ4 signal-positive control signal)/(negative control DMSO signal-positive control signal)] x […]. The human kinome tree annotation for DJ4 is plotted with Reaction Biology’s Kinase Mapper and KinMap web interface tool http://kinhub.org/kinmap (accessed on 09 January 2023).

The next data set addresses T2, CDK7 (Homo sapiens, UniProt P50613).
T2 construct: purchased DiscoverX Corporation (Lead Hunter Discovery Services, KINOMEscan)
The experiment in a line: KINOMEscan competition binding assay. The note with it: CDK7, 10 µM.
Description: as §1, §2

The next data set has as its target T3, CDK8 (Homo sapiens, UniProt P49336).
T3 construct: purchased DiscoverX Corporation (Lead Hunter Discovery Services, KINOMEscan)
The data set is described as follows: KINOMEscan competition binding assay. The note with it: CDK8, 10 µM.
Description: as §1, §2

The target in another data set is T4, CDK9 (Homo sapiens, UniProt P50750).
T4 construct: purchased DiscoverX Corporation (Lead Hunter Discovery Services, KINOMEscan)
The experiment in a line: KINOMEscan competition binding assay. The note with it: CDK9, 10 µM.
Description: as §1, §2

A further data set addresses T5, FLT3 (Homo sapiens, UniProt P36888).
T5 construct: purchased DiscoverX Corporation (Lead Hunter Discovery Services, KINOMEscan)
The data set is described as follows: KINOMEscan competition binding assay. The note with it: FLT3, 10 µM.
Description: as §1, §2

In the next data set the target is T6, KIT (Homo sapiens, UniProt P10721).
T6 construct: purchased DiscoverX Corporation (Lead Hunter Discovery Services, KINOMEscan)
The data set is described as follows: KINOMEscan competition binding assay.
Description: as §1, §2

In a further data set the target is T7, MRCK1 (Homo sapiens, UniProt Q5VT25).
T7 construct: purchased DiscoverX Corporation (Lead Hunter Discovery Services, KINOMEscan)
The experiment in a line: KINOMEscan competition binding assay. The note with it: MRCK1, 10 µM.
Description: as §1, §2

Another data set has as its target T8, MRCK2 (Homo sapiens, UniProt Q9Y5S2).
T8 construct: purchased DiscoverX Corporation (Lead Hunter Discovery Services, KINOMEscan)
The experiment in a line: KINOMEscan competition binding assay. The note with it: MRCK2, 10 µM.
Description: as §1, §2

Data set [2] in a line: Solubility in culture media at 10 µM (observation). It is filed as physicochemical. The note with it: NCI-60 screening. How it is done:
To study the effectiveness of these analogs in a vast range of cancer cell lines, the compounds were subjected to cell viability screening in the NCI-60 human cancer cell line panel representing nine different cancer types (Supplementary Figure S2). Testing of the compounds in such a wide range of cancer types helps identify sensitivity and selectivity of specific types of cancers to the novel compounds. The initial screening was performed at a single concentration of 10 µM. At 10 µM, both DJ110 and DJ-Morpholine were insoluble and were, therefore, ineffective. The parental DJ4 compound was effective in a wide spectrum of cancer cell lines, with breast cancer, NSCLC, and central nervous system cancers displaying the most consistent response. The ovarian cancer cell line NCI/ADR-RES and HCC-2998 colon cancer cells were relatively resistant to DJ4 (IC50 > 10 µM) (Supplementary Figure S2). […] NCI/ADR-RES (ovarian), RPMI-8226, and K-562 (leukemia) cell lines were relatively resistant (29%, 29%, 26% increase in cell number) to DJE4. […] Two CNS cell lines, SNB-75 and SF-539, were the most sensitive in which DJ-Allyl induced the cell death (60% reduction in cell number). NCI/ADR-RES (ovarian), MALME-3M (melanoma), HCC-2998 (colon), RPMI-8226, and K-562 (leukemia) were relatively resistant (~40% increase in cell number) to DJ-Allyl. […]

Setting [3] is: MDA-MB-231, all concentrations (2.5, 5.0, 10 µM).

Structures are written as SMILES. “Also recorded” adds a separate entry of the source.

T2 sequence (P50613 whole entry): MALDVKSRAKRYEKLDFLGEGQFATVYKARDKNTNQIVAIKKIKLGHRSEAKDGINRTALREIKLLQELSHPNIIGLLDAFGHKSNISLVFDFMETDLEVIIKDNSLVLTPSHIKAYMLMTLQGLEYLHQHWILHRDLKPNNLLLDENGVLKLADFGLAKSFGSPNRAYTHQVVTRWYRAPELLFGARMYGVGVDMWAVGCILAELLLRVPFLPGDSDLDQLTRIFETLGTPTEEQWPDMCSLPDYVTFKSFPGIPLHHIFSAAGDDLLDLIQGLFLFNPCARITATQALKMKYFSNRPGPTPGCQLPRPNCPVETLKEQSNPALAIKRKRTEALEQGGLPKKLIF
T7 sequence (Q5VT25 whole entry): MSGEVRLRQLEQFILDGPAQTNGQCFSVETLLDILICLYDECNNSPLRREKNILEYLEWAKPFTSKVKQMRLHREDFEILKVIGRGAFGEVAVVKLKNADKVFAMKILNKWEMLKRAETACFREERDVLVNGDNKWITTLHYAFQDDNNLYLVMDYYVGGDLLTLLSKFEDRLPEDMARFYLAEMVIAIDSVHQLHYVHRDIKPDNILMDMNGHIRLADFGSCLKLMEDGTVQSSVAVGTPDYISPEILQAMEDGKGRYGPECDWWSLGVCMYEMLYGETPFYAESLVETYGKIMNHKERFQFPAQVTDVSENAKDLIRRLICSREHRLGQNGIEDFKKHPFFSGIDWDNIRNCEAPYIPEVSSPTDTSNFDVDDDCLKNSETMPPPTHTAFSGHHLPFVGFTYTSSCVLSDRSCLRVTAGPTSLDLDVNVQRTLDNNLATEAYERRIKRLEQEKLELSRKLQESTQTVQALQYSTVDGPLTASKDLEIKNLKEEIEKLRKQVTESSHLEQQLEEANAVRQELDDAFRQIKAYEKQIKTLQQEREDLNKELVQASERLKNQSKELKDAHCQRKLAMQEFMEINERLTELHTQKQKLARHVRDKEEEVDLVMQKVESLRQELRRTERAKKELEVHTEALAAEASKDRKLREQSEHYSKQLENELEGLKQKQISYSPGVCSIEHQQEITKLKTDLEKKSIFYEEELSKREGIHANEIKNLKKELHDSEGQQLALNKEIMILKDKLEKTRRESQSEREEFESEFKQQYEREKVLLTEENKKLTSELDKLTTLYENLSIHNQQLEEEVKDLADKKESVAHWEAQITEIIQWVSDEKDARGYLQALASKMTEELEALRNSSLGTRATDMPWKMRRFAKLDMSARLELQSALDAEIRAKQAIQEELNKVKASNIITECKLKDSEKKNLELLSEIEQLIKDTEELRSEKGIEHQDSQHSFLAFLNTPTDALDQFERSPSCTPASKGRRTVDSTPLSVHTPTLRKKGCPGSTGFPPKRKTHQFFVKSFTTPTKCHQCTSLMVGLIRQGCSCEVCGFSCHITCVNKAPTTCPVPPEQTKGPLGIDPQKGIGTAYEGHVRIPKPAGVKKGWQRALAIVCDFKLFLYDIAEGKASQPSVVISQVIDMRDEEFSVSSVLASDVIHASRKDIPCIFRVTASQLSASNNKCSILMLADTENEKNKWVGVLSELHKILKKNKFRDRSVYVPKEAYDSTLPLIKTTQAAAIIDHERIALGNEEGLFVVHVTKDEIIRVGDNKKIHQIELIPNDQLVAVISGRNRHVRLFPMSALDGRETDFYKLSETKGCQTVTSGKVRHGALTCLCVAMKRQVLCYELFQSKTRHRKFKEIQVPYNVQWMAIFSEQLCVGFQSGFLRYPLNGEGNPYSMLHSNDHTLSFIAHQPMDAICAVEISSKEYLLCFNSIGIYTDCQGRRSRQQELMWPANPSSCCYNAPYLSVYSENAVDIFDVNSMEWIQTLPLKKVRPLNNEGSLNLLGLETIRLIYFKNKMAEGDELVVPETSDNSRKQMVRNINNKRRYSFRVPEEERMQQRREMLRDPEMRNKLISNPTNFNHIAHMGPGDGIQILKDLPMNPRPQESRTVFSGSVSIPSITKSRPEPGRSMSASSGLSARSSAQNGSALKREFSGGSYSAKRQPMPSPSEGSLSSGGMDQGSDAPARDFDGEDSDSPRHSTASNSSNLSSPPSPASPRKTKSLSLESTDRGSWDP
T4 sequence (P50750 whole entry): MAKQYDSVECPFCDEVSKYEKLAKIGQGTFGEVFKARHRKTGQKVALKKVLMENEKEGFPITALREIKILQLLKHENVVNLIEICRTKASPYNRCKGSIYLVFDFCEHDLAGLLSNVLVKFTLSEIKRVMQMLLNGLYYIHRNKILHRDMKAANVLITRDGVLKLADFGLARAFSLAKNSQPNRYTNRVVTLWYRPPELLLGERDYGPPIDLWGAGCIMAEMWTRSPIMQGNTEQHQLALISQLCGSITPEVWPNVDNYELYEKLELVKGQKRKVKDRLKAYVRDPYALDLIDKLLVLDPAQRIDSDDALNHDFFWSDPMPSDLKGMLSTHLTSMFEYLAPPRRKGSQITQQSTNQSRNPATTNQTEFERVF
T6 sequence (P10721 26-976): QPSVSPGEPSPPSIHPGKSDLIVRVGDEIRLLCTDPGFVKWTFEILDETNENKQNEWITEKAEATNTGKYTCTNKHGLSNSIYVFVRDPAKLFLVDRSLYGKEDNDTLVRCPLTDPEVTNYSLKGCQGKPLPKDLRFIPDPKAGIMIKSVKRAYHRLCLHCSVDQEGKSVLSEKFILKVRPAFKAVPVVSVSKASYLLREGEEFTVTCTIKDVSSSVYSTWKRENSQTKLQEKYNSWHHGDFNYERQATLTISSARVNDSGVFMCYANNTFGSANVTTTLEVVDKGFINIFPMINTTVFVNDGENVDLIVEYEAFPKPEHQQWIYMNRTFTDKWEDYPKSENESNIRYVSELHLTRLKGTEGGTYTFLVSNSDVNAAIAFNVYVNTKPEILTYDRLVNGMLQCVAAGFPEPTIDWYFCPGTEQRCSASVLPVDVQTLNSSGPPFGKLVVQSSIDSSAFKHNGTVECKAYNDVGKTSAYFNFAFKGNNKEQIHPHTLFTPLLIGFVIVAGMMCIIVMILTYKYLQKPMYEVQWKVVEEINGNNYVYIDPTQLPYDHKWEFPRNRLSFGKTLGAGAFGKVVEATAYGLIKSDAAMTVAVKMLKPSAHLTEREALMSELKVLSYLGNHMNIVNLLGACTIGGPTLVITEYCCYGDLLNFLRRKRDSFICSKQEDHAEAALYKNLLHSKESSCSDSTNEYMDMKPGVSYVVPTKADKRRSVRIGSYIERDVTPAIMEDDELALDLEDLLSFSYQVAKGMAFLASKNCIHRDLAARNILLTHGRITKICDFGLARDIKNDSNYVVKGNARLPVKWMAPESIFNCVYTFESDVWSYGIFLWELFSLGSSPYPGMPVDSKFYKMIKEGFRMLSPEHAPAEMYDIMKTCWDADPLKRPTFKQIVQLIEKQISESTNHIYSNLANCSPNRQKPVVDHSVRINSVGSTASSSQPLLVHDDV
T5 sequence (P36888 27-993): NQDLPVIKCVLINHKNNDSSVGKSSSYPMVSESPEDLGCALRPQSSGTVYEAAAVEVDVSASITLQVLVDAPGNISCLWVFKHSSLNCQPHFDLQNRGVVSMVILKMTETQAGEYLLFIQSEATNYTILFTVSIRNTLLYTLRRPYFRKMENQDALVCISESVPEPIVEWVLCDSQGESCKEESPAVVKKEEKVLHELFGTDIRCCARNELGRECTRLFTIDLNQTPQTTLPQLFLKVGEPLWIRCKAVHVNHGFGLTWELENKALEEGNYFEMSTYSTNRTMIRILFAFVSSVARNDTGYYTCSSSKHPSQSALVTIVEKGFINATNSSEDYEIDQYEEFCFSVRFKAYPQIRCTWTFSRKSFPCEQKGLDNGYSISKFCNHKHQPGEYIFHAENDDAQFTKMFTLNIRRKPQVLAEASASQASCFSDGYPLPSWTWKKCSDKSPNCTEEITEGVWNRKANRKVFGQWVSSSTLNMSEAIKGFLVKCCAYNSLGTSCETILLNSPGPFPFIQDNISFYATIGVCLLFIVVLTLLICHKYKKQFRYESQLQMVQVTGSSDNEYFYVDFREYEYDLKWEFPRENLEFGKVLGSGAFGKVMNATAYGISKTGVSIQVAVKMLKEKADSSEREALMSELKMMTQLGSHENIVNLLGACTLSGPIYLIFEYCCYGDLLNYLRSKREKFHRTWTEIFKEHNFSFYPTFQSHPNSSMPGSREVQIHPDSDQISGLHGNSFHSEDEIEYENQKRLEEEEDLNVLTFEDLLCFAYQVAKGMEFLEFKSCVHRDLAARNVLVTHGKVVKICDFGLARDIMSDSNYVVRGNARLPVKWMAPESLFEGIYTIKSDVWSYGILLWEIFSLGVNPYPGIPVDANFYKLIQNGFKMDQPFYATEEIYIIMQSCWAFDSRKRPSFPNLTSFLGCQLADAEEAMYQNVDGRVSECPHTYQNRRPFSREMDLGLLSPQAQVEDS
T3 sequence (P49336 whole entry): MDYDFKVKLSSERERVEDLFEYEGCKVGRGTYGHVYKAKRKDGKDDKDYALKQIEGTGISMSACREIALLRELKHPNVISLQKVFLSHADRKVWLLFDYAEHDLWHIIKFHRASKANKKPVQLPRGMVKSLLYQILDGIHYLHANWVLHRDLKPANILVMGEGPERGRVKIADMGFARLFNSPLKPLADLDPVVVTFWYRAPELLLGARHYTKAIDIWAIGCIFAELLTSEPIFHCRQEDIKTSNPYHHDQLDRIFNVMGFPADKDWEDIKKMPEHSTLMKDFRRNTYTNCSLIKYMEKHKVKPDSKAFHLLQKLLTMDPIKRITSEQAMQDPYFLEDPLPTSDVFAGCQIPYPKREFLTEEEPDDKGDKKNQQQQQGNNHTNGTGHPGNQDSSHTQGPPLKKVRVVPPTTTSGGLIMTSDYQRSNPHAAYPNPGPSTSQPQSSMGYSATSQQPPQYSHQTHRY

In general, inhibition refers to the change of the read-out against control, counted positive when it falls. The low end stands for a weak effect, the high end for a strong effect. `O=C1N/C(=N\CCc2ccccc2)S/C1=C/c1c[nH]c2ncccc12` [DJ4]: in data set [1] (MDA-MB-231, 2.5, 5.0 and 10 µM), the “expression of pErk” value is reported as “significantly increased”. Besides, the “cleaved PARP” value in data set [1] (setting [3]) is “corresponding increases”. For the same compound, the “expression of PCNA” value in [1] (setting [3]) is reported as “decreased”. The “expression of cleaved caspase 7” value in [1] (setting [3]) is reported as “significantly increased”. Further, the inhibition at 10 µM on CDK14, on CDK7, at CDK8, on CDK9, at FLT3 and on KIT was over 98% throughout. Further, the inhibition at 10 µM on MRCK1 and on MRCK2 was over 98% throughout.
In the case of `O=C1N/C(=N\Cc2ccccc2)S/C1=C/c1c[nH]c2ncccc12` [DJ110], the “solubility at 10 µM in culture media” value in data set [2] is “insoluble; also recorded: sparingly soluble”.
In the case of `O=C1N/C(=N\CCN2CCOCC2)S/C1=C/c1c[nH]c2ncccc12` [DJ-Morpholine], in [2], the “solubility at 10 µM in culture media” value is given as “insoluble; also recorded: sparingly soluble”.
